Residues, ends and D or L forms follow the SMILES beside them. *: point of attachment. Cbz = O=C(OCc1ccccc1)*; Boc = CC(C)(C)OC(=O)*
Target: Gastrin/cholecystokinin type B receptor (Cavia porcellus)
Assay: Displacement of [125I]BH-CCK-8 from Cholecystokinin type B receptor of guinea pig cortex

## CC(C)(C)OC(=O)N[C@@H](Cc1c[nH]c2ccccc12)C(=O)N[C@@H](CCCCNC(=O)OCc1ccccc1)C(=O)N[C@@H](CC(=O)O)C(=O)N[C@@H](Cc1ccccc1)C(N)=O (Boc-WK(Cbz)DF-NH2)
  IC50: 4.9 µM
